Earlier results on three compounds are cited in paper PMC8619046, “ABCB1 and ABCG2 Control Brain Accumulation and Intestinal Disposition of the Novel ROS1/TRK/ALK Inhibitor Repotrectinib, While OATP1A/1B, ABCG2, and CYP3A Limit Its Oral Availability” (Pharmaceutics, 2021).

SMILES strings stand for the structures.

The conditions of this data set: cited from earlier work; for brain-to-plasma ratio: wild-type mice; for fold increase of brain-to-plasma ratio: combined genetic knockout of Abcb1 and Abcg2, mice.

For `C[C@@H](Oc1cc(-c2cnn(C3CCNCC3)c2)cnc1N)c1c(Cl)ccc(F)c1Cl` [crizotinib], the brain-to-plasma ratio entry is on record as “about 0.2”. Further, the “fold enhancement of brain-to-plasma ratio” value (mouse, in vivo) is listed as ~ 15 fold.

`C[C@H]1Oc2cc(cnc2N)-c2c(nn(C)c2C#N)CN(C)C(=O)c2ccc(F)cc21` [lorlatinib]: the “fold increase of brain-to-plasma ratio” value was 4 fold and the brain-to-plasma ratio is given as 0.4.

With `C[C@@H]1CCc2ncc(F)cc2[C@H]2CCCN2c2ccn3ncc(c3n2)C(=O)N1` [selitrectinib], the “fold increase of brain-to-plasma ratio” value is 6 fold and the brain-to-plasma ratio is recorded as 0.03.
